# Several values for one entry are separate records, joined by “and”; a condition that tells them apart may be missing. Identical values can stand only once.
# Columns and labels:
# Assay in all cases: In vivo IPTG dose-response of LacI-regulated eYFP expression from the pVER plasmid in E. coli grown in rich M9 medium at 37 °C, measured by flow cytometry and fitted to the Hill equation by Bayesian MCMC (posterior mean and SD).
# Assay type in all cases: cell-based, E. coli MG1655Δlac
# Conditions in all cases: read-out: log_ec50 (base-10 logarithm of EC50 in μmol/L) (converted)
# pVER-IPTG-002(S70R) = target: T1, pVER-IPTG-002(S70R) (Escherichia coli, UniProt P03023, M254I/S158R/S70R/T154I/V238D/V264I/V96E)
# T1 construct: gene lacI; LacI expressed from pVER plasmid
# T1 sequence (P03023 whole entry S70R/V96E/T154I/S158R/V238D/M254I/V264I): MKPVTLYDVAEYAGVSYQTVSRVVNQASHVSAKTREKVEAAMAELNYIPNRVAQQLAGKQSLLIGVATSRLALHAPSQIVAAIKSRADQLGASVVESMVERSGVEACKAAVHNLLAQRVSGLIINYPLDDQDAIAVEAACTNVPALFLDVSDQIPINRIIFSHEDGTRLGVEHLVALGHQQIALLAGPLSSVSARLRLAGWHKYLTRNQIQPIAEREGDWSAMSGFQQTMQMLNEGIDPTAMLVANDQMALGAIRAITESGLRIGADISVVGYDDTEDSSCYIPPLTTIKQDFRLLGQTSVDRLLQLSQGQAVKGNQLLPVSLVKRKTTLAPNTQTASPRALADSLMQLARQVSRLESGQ
# Procedure: (§1) All reported measurements were completed using E. coli strain MG1655Δlac, in which the lactose operon of E. coli strain MG1655 (ATCC #47076) was replaced with the bleomycin resistance gene from Streptoalloteichus hindustanus (Shble).
# (§2) Dose-response curves were measured with flow cytometry using E. coli MG1655Δlac transformed with variants of the pVER plasmid, described previously. The plasmid contained different variants of the lacI coding DNA sequence (CDS), as described in the text, and an expression cassette with enhanced yellow fluorescent protein (eYFP) under the control of the lactose operator (lacO). The lacI CDS was verified with Sanger sequencing for each variant.
# (§3) All cultures were grown in a rich M9 media (3 g/L KH2PO4, 6.78 g/L Na2HPO4, 0.5 g/L NaCl, 1 g/L NH4Cl, 0.1 mmol/L CaCl2, 2 mmol/L MgSO4, 4% glycerol, and 20 g/L casamino acids) supplemented with 50 μg/mL kanamycin.
# (§4) • Prepare first growth plate, with 450 μL rich M9 media in each well. • Pipette 50 μL of starter culture into each well in rows B-G of the plate (leaving rows A and H blank). • Use a E. coli containing a different lacI variant for each row. • Seal first growth plate with gas permeable membrane. • Incubate plate in plate reader for 12 h to 14 h. • Grow to stationary to provide a reproducible starting point for each measurement. • Prepare second growth plate with 490 μL in each well. • Dilution series of isopropyl-β-D-thiogalactopyranoside (IPTG): 11 columns of a 2-fold serial dilution gradient and one column with zero IPTG. • Ten minutes before the end of the incubation cycle for the first growth plate, move the second growth plate to a heated station set to 47°C. • Ten minutes at 47°C will pre-warm the media in the plate to 37°C. • De-seal the first growth plate (after completion of the stationary-phase incubation cycle). • Pipette 10 μL from each well in the first growth plate to the corresponding well in the second growth plate. • 50-fold dilution; using a 96-channel pipetting head. • Seal second growth plate with gas permeable membrane. • Incubate second growth plate in plate reader for 160 minutes. • Sufficient for approximately 10-fold increase in cell density or 3.3 doublings. • Prepare third growth plate with 450 μL in each well. • Same dilution series as in second growth plate. • Ten minutes before the end of the incubation cycle for the second growth plate, move the third growth plate to a heated station set to 47°C. • De-seal the second growth plate (after completion of the 160 minute incubation cycle). • Pipette 50 μL from each well in the second growth plate to the corresponding well in the third growth plate. • 10-fold dilution; using a 96-channel pipetting head. • Seal third growth plate with gas permeable membrane. • Incubate third growth plate in plate reader for 160 minutes. • Prepare flow cytometry sample plate (round-bottom 96-well plate, Falcon, 351177). • Each well in rows B-G: 195 μL 1x PBS with 170 μg/mL chloramphenicol (Fisher BioReagents, cat. #BP904-100). • Rows A and H: PBS blanks, focusing fluid blanks, and space for calibration bead sample • At the end of the incubation cycle for the third growth plate, pipette 5 μL from each well to the corresponding well in the flow cytometry sample plate.
# (§5) Flow cytometry samples were measured with an Attune NxT flow cytometer equipped with a 96-well plate autosampler using a 488 nm excitation laser and a 530 nm ± 15 nm bandpass emission filter. Blank samples were measured with each batch of cell measurements, and an automated gating algorithm was used to discriminate cell events from non-cell events. Fluorescence calibration beads (Spherotech, part no. RCP-30-20A) were also measured with each batch of samples to facilitate calibration of flow cytometry data to molecules of equivalent fluorescein (MEF). […]
# pVER-IPTG-002(V80L) = target: T2, pVER-IPTG-002(V80L) (Escherichia coli, UniProt P03023, M254I/S158R/T154I/V238D/V264I/V80L/V96E)
# T2 construct: gene lacI; LacI expressed from pVER plasmid
# T2 sequence (P03023 whole entry V80L/V96E/T154I/S158R/V238D/M254I/V264I): as the sequence (P03023 whole entry S70R/V96E/T154I/S158R/V238D/M254I/V264I) above, with R70S, V80L counted along it
# Procedure: as §1, §2, §3, §4, §5
# pVER-IPTG-004 = target: T3, pVER-IPTG-004 (Escherichia coli, UniProt P03023, A87P/E357G/V301M)
# T3 construct: gene lacI; LacI expressed from pVER plasmid
# T3 sequence (P03023 whole entry A87P/V301M/E357G): as the sequence (P03023 whole entry S70R/V96E/T154I/S158R/V238D/M254I/V264I) above, with R70S, A87P, E96V, I154T, R158S, D238V, I254M, I264V, V301M, E357G counted along it
# Procedure: as §1, §2, §3, §4, §5
# pVER-IPTG-004(V136E) = target: T4, pVER-IPTG-004(V136E) (Escherichia coli, UniProt P03023, A87P/E357G/V136E/V301M)
# T4 construct: gene lacI; LacI expressed from pVER plasmid
# T4 sequence (P03023 whole entry A87P/V136E/V301M/E357G): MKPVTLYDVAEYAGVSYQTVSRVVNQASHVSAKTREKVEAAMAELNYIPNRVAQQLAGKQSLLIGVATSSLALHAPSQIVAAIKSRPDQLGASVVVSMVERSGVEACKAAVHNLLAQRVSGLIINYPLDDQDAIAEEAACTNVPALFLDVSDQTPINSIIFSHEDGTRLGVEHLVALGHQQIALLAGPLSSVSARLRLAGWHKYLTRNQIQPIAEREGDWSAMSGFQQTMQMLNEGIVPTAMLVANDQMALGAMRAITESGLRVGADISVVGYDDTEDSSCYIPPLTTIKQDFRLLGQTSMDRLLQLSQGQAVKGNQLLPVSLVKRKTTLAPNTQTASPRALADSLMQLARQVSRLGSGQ
# Procedure: as §1, §2, §3, §4, §5
# pVER-IPTG-004(V80L) = target: T5, pVER-IPTG-004(V80L) (Escherichia coli, UniProt P03023, A87P/E357G/V301M/V80L)
# T5 construct: gene lacI; LacI expressed from pVER plasmid
# T5 sequence (P03023 whole entry V80L/A87P/V301M/E357G): as the sequence (P03023 whole entry A87P/V136E/V301M/E357G) above, with V80L, E136V counted along it
# Procedure: as §1, §2, §3, §4, §5
# pVER-IPTG-006 = target: T6, pVER-IPTG-006 (Escherichia coli, UniProt P03023, A241V/A341T/D88Y/L305M/L319F/L346S/N246S/P339T)
# T6 construct: gene lacI; LacI expressed from pVER plasmid
# T6 sequence (P03023 whole entry D88Y/A241V/N246S/L305M/L319F/P339T/A341T/L346S): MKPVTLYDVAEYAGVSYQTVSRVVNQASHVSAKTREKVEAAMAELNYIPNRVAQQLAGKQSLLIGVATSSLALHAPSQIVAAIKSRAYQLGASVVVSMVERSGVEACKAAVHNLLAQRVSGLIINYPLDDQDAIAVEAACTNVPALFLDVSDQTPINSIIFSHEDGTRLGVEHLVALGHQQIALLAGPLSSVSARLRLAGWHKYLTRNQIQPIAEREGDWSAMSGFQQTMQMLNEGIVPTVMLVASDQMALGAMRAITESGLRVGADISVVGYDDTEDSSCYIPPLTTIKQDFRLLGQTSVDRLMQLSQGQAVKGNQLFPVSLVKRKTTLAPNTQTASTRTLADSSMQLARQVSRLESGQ
# Procedure: as §1, §2, §3, §4, §5
# pVER-IPTG-008 = target: T7, pVER-IPTG-008 (Escherichia coli, UniProt P03023, A266T/I237T/I289F/S61L/T258S)
# T7 construct: gene lacI; LacI expressed from pVER plasmid; stop codon at 351
# T7 sequence (P03023 1-350 S61L/I237T/T258S/A266T/I289F): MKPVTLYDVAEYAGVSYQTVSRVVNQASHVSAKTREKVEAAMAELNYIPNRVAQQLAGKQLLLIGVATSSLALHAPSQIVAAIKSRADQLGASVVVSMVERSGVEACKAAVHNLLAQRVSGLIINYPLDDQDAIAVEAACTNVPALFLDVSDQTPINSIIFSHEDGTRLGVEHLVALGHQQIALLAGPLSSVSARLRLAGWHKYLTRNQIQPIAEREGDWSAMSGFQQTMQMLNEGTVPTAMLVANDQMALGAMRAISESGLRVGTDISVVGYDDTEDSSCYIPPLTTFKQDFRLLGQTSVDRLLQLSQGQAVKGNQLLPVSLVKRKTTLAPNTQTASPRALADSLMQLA
# Procedure: as §1, §2, §3, §4, §5
# pVER-IPTG-010 = target: T8, pVER-IPTG-010 (Escherichia coli, UniProt P03023, A72V/I210F/K84N/M254T/T336S)
# T8 construct: gene lacI; LacI expressed from pVER plasmid
# T8 sequence (P03023 whole entry A72V/K84N/I210F/M254T/T336S): as the sequence (P03023 whole entry A87P/V136E/V301M/E357G) above, with A72V, K84N, P87A, E136V, I210F, M254T, M301V, T336S, G357E counted along it
# Procedure: as §1, §2, §3, §4, §5
# [1] = target: T9, pVER-IPTG-075 (also pVER-IPTG-138) (Escherichia coli, UniProt P03023, A81S/E100K/L148V/Q60R/S221N/S28G/T34M/V271L)
# T9 construct: gene lacI; LacI expressed from pVER plasmid
# T9 sequence (P03023 whole entry S28G/T34M/Q60R/A81S/E100K/L148V/S221N/V271L): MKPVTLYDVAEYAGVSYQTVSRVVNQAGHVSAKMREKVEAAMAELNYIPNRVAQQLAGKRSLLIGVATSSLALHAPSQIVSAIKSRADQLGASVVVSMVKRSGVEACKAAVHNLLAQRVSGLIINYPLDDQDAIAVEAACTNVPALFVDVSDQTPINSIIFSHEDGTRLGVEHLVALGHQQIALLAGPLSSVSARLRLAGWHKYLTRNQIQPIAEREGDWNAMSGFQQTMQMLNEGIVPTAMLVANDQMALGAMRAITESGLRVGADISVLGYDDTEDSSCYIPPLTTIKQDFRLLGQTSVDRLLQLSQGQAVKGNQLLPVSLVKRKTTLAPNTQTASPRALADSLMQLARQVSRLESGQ
# Procedure: as §1, §2, §3, §4, §5
# pVER-IPTG-076 = target: T10, pVER-IPTG-076 (Escherichia coli, UniProt P03023, A337S/L198Q/S102R/S260F/S93N/V99E)
# T10 construct: gene lacI; LacI expressed from pVER plasmid
# T10 sequence (P03023 whole entry S93N/V99E/S102R/L198Q/S260F/A337S): as the sequence (P03023 whole entry A87P/V136E/V301M/E357G) above, with P87A, S93N, V99E, S102R, E136V, L198Q, S260F, M301V, A337S, G357E counted along it
# Procedure: as §1, §2, §3, §4, §5
# pVER-IPTG-081 = target: T11, pVER-IPTG-081 (Escherichia coli, UniProt P03023, M347V/P285S/S308P/V301M)
# T11 construct: gene lacI; LacI expressed from pVER plasmid
# T11 sequence (P03023 whole entry P285S/V301M/S308P/M347V): as the sequence (P03023 whole entry A87P/V136E/V301M/E357G) above, with P87A, E136V, P285S, S308P, M347V, G357E counted along it
# Procedure: as §1, §2, §3, §4, §5
# pVER-IPTG-082 = target: T12, pVER-IPTG-082 (Escherichia coli, UniProt P03023, G200A/Q209R/Q317L/R263H/S190C/V94M)
# T12 construct: gene lacI; LacI expressed from pVER plasmid
# T12 sequence (P03023 whole entry V94M/S190C/G200A/Q209R/R263H/Q317L): as the sequence (P03023 whole entry A87P/V136E/V301M/E357G) above, with P87A, V94M, E136V, S190C, G200A, Q209R, R263H, M301V, Q317L, G357E counted along it
# Procedure: as §1, §2, §3, §4, §5
smiles,measurement,setting,value
"CC(C)S[C@@H]1O[C@H](CO)[C@H](O)[C@H](O)[C@H]1O [IPTG, isopropyl-β-D-thiogalactopyranoside]",EC50,pVER-IPTG-002(S70R),4690 µmol/L
same,EC50,pVER-IPTG-002(V80L),47.7 µmol/L
same,EC50,pVER-IPTG-004,234 µmol/L
same,EC50,pVER-IPTG-004(V136E),421000 µmol/L
same,EC50,pVER-IPTG-004(V80L),36.8 µmol/L
same,EC50,pVER-IPTG-006,540 µmol/L
same,EC50,pVER-IPTG-008,77.3 µmol/L
same,EC50,pVER-IPTG-010,9.17 µmol/L
same,EC50,[1],3 µmol/L and 2.99 µmol/L
same,EC50,pVER-IPTG-076,4.31 µmol/L
same,EC50,pVER-IPTG-081,8.46 µmol/L
same,EC50,pVER-IPTG-082,27.8 µmol/L

# — publication PMC10057847, “Precision engineering of biological function with large-scale measurements and machine learning” (PLOS ONE, 2023)
